We go through 37 compounds from patent publication US12479843B2, “Spiro ring-containing quinazoline compounds” (WIGEN BIOMEDICINE TECHNOLOGY (SHANGHAI) CO., LTD., priority 2019, dated 2025).

As usually defined, the IC50 is the concentration needed to halve the response being measured. A high value points to lower potency. In general, inhibition refers to the change of the read-out against control, counted positive when it falls.

One test concerns H358 cells. Briefly: Antiproliferative activity against H358 cells (Cell Titer Glow, ultra-low attachment plate). The class given is cell-based. Conditions: Homo sapiens, NCI-H358, 72 h, 96-well ultra-low attachment plate, three days after addition of compound, Cell Titer Glow. As to the method:
2500 H358 cells were seeded in a 96-well ultra-low attachment plate (corning, 7007). After one day of growth, a serially diluted compound (a maximum concentration of 5 μM, 5-fold dilution, a total of five doses) was added. Three days after the addition of the compound, Cell Titer Glow (Promega, G9681) was added to evaluate pellet growth, and the IC50 value was calculated.
A general note: In ATP-based viability assays light output follows the ATP content of the culture.

The test system of another test is pERK level in H358 cells. Briefly: pERK and ERK protein content assay in H358 cells (ELISA). It counts as cell-based. Conditions: Homo sapiens, NCI-H358, compound 1 μM, 24 h, pERK/ERK ratio compared with DMSO group, read-out: Inhibition rate (%) of pERK level. In short, it runs like this:
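H358 cells grown one day, then treated 24 h with compound at 1 μM. pERK and ERK in lysates measured by ELISA; pERK/ERK ratio expressed as percent inhibition versus DMSO.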
Background: An ELISA detects its analyte on a solid surface through an enzyme-linked reagent.

In the test with H358 cells, `C=CC(=O)N1CC2(CCN(c3nc(N4CC(N(C)CCOC)C4)nc4c(OCC(F)(F)F)c(-c5c(C)ccc6[nH]ncc56)c(C5CC5)cc34)CC2)C1` [Compound 140] gave an IC50 below 300 nM. For the same compound, the inhibition at 1 µM with pERK level in H358 cells was above 90%.
The matching figures for `C=C(F)C(=O)N1CC2(CCN(c3nc(N4CC(N(C)CCOC)C4)nc4c(OCC(F)(F)F)c(-c5c(C)ccc6[nH]ncc56)c(C5CC5)cc34)CC2)C1` [Compound 141]: below 300 nM and above 90%.
In the same order, the values of `C=C(F)C(=O)N1CC2(CCN(c3nc(N4CC(N5CCC5)C4)nc4c(OCC(F)(F)F)c(-c5c(C)ccc6[nH]ncc56)c(C5CC5)cc34)CC2)C1` [Compound 143] are below 300 nM and above 90%.
The matching figures for `C=CC(=O)N1CC2(CCN(c3nc(N4CC(N5CC(OC)C5)C4)nc4c(OCC(F)(F)F)c(-c5c(C)ccc6[nH]ncc56)c(C5CC5)cc34)CC2)C1` [Compound 144]: below 300 nM and above 90%.
As to `C=C(F)C(=O)N1CC2(CCN(c3nc(N4CC(N5CC(OC)C5)C4)nc4c(OCC(F)(F)F)c(-c5c(C)ccc6[nH]ncc56)c(C5CC5)cc34)CC2)C1` [Compound 145], the 50% inhibitory concentration (IC50) in the test on H358 cells is below 300 nM. Further, the inhibition at 1 µM in the test on pERK level in H358 cells was above 90%.
In the same order, the values of `C=CC(=O)N1CC2(CCN(c3nc(N4CC(N5CCOCC5)C4)nc4c(OCC(F)(F)F)c(-c5c(C)ccc6[nH]ncc56)c(C5CC5)cc34)CC2)C1` [Compound 146] are below 300 nM and above 90%.
In the same order, the values of `C=C(F)C(=O)N1CC2(CCN(c3nc(N4CC(N5CCOCC5)C4)nc4c(OCC(F)(F)F)c(-c5c(C)ccc6[nH]ncc56)c(C5CC5)cc34)CC2)C1` [Compound 147] are below 300 nM and above 90%.
The matching figures for `C=CC(=O)N1CC2(CCN(c3nc(N4CCC(N5CCOCC5)CC4)nc4c(OCC(F)(F)F)c(-c5c(C)ccc6[nH]ncc56)c(C5CC5)cc34)CC2)C1` [Compound 148]: 300 to 1000 nM and 50 to 90%.
In the test with H358 cells, `C=C(F)C(=O)N1CC2(CCN(c3nc(N4CCC(N5CCOCC5)CC4)nc4c(OCC(F)(F)F)c(-c5c(C)ccc6[nH]ncc56)c(C5CC5)cc34)CC2)C1` [Compound 149] had an IC50 of 300 to 1000 nM. Also, the inhibition at 1 µM with pERK level in H358 cells was in the range of 50 to 90%.
The matching figures for `C=CC(=O)N1CC2(CCN(c3nc(OC4CN5CCC4CC5)nc4c(OCC(F)(F)F)c(-c5c(C)ccc6[nH]ncc56)c(C5CC5)cc34)CC2)C1` (centres unmarked) [Compound 150]: below 300 nM and above 90%.
In the same order, the values of `C=C(F)C(=O)N1CC2(CCN(c3nc(OC4CN5CCC4CC5)nc4c(OCC(F)(F)F)c(-c5c(C)ccc6[nH]ncc56)c(C5CC5)cc34)CC2)C1` (centres unmarked) [Compound 151] are 300 to 1000 nM and above 90%.
In the test with H358 cells, `C=CC(=O)N1CC2(CCN(c3nc(N4CCN(C5COC5)CC4)nc4c(OCC(F)(F)F)c(-c5c(C)ccc6[nH]ncc56)c(C5CC5)cc34)CC2)C1` [Compound 152] came in with an IC50 below 300 nM. Further, the inhibition at 1 µM in the test on pERK level in H358 cells is above 90%.
The matching figures for `C=C(F)C(=O)N1CC2(CCN(c3nc(N4CCN(C5COC5)CC4)nc4c(OCC(F)(F)F)c(-c5c(C)ccc6[nH]ncc56)c(C5CC5)cc34)CC2)C1` [Compound 153]: below 300 nM and above 90%.
In the same order, the values of `C=CC(=O)N1CC2(CCN(c3nc(N4CCN(C5CCOCC5)CC4)nc4c(OCC(F)(F)F)c(-c5c(C)ccc6[nH]ncc56)c(C5CC5)cc34)CC2)C1` [Compound 154] are below 300 nM and above 90%.
The matching figures for `C=C(F)C(=O)N1CC2(CCN(c3nc(N4CCN(C5CCOCC5)CC4)nc4c(OCC(F)(F)F)c(-c5c(C)ccc6[nH]ncc56)c(C5CC5)cc34)CC2)C1` [Compound 155]: 300 to 1000 nM and 50 to 90%.
`C=CC(=O)N1CC2(CCN(c3nc(N4CC5(CCOCC5)C4)nc4c(OCC(F)(F)F)c(-c5c(C)ccc6[nH]ncc56)c(C5CC5)cc34)CC2)C1` [Compound 156] gave an IC50 with H358 cells below 300 nM. Moreover, the inhibition at 1 µM with pERK level in H358 cells is above 90%.
In the same order, the values of `C=CC(=O)N1CC2(CCN(c3nc(N4CC5(CN(CC6CC6)C5)C4)nc4c(OCC(F)(F)F)c(-c5c(C)ccc6[nH]ncc56)c(C5CC5)cc34)CC2)C1` [Compound 157] are below 300 nM and above 90%.
The matching figures for `C=CC(=O)N1CC2(CCN(c3nc(N4CC5(C4)CN(C4COC4)C5)nc4c(OCC(F)(F)F)c(-c5c(C)ccc6[nH]ncc56)c(C5CC5)cc34)CC2)C1` [Compound 158]: below 300 nM and above 90%.
In the same order, the values of `C=CC(=O)N1CC2(CCN(c3nc(N4CCC5(CCN(C)C5)C4)nc4c(OCC(F)(F)F)c(-c5c(C)ccc6[nH]ncc56)c(C5CC5)cc34)CC2)C1` (centres unmarked) [Compound 159] are below 300 nM and above 90%.
In the test on H358 cells, `C=CC(=O)N1CC2(CCN(c3nc(N4CCC5(CCN(CCOC)C5)C4)nc4c(OCC(F)(F)F)c(-c5c(C)ccc6[nH]ncc56)c(C5CC5)cc34)CC2)C1` (centres unmarked) [Compound 160] came in with an IC50 below 300 nM. Also, in the test on pERK level in H358 cells, the inhibition at 1 µM was above 90%.
In the same order, the values of `C=CC(=O)N1CC2(CCN(c3nc(N4CCC5(CCN(C)CC5)C4)nc4c(OCC(F)(F)F)c(-c5c(C)ccc6[nH]ncc56)c(C5CC5)cc34)CC2)C1` [Compound 161] are below 300 nM and above 90%.
In the case of `C=CC(=O)N1CC2(CCN(c3nc(N4CCC5(CC4)CC(N)C5)nc4c(OCC(F)(F)F)c(-c5c(C)ccc6[nH]ncc56)c(C5CC5)cc34)CC2)C1` [Compound 162], the IC50 in the test with H358 cells was below 300 nM. Moreover, the inhibition at 1 µM in the test on pERK level in H358 cells is above 90%.
In the same order, the values of `C=CC(=O)N1CC2(CCN(c3nc(N4CCC5(CCN(C)C5)CC4)nc4c(OCC(F)(F)F)c(-c5c(C)ccc6[nH]ncc56)c(C5CC5)cc34)CC2)C1` [Compound 163] are below 300 nM and above 90%.
In the same order, the values of `C=CC(=O)N1CC2(CCN(c3nc(N4CCC5(CCN(C)CC5)CC4)nc4c(OCC(F)(F)F)c(-c5c(C)ccc6[nH]ncc56)c(C5CC5)cc34)CC2)C1` [Compound 164] are below 300 nM and above 90%.
As to `C=CC(=O)N1CC2(CCN(c3nc(N4CC(N(C)CC)C4)nc4c(OCC(F)(F)F)c(-c5c(C)ccc6[nH]ncc56)c(C5CC5)cc34)CC2)C1` [Compound 165], in the test with H358 cells, the IC50 was below 300 nM. Also, the inhibition at 1 µM in the test with pERK level in H358 cells was above 90%.
In the same order, the values of `C=CC(=O)N1CC2(CCN(c3nc(N4CC(N(CC)CC)C4)nc4c(OCC(F)(F)F)c(-c5c(C)ccc6[nH]ncc56)c(C5CC5)cc34)CC2)C1` [Compound 166] are below 300 nM and above 90%.
The compound `C=CC(=O)N1CC2(CCN(c3nc(N4CC(N(C)CC(F)(F)F)C4)nc4c(OCC(F)(F)F)c(-c5c(C)ccc6[nH]ncc56)c(C5CC5)cc34)CC2)C1` [Compound 167] yielded an IC50 in the test on H358 cells of 300 to 1000 nM. Moreover, the inhibition at 1 µM with pERK level in H358 cells was above 90%.
In the same order, the values of `C=CC(=O)N1CC2(CCN(c3nc(N4CC(N5CC(F)C5)C4)nc4c(OCC(F)(F)F)c(-c5c(C)ccc6[nH]ncc56)c(C5CC5)cc34)CC2)C1` [Compound 168] are below 300 nM and above 90%.
In the same order, the values of `C=CC(=O)N1CC2(CCN(c3nc(N4CC(N5CC(F)(F)C5)C4)nc4c(OCC(F)(F)F)c(-c5c(C)ccc6[nH]ncc56)c(C5CC5)cc34)CC2)C1` [Compound 169] are 300 to 1000 nM and 50 to 90%.
The matching figures for `C=CC(=O)N1CC2(CCN(c3nc(N4CC(N5CC(OCC)C5)C4)nc4c(OCC(F)(F)F)c(-c5c(C)ccc6[nH]ncc56)c(C5CC5)cc34)CC2)C1` [Compound 170]: 300 to 1000 nM and 50 to 90%.
The compound `C=CC(=O)N1CC2(CCN(c3nc(N4CC(N5CC[C@H](F)C5)C4)nc4c(OCC(F)(F)F)c(-c5c(C)ccc6[nH]ncc56)c(C5CC5)cc34)CC2)C1` [Compound 172] registered an IC50 with H358 cells below 300 nM. For the same compound, the inhibition at 1 µM in the test with pERK level in H358 cells was above 90%.
The matching figures for `C=CC(=O)N1CC2(CCN(c3nc(N4CC(N5CC[C@H](OC)C5)C4)nc4c(OCC(F)(F)F)c(-c5c(C)ccc6[nH]ncc56)c(C5CC5)cc34)CC2)C1` [Compound 174]: below 300 nM and above 90%.
The matching figures for `C=CC(=O)N1CC2(CCN(c3nc(N4CC(N5CC[C@@H](OC)C5)C4)nc4c(OCC(F)(F)F)c(-c5c(C)ccc6[nH]ncc56)c(C5CC5)cc34)CC2)C1` [Compound 175]: below 300 nM and above 90%.
The matching figures for `C=CC(=O)N1CC2(CCN(c3nc(N4CC(N5CCC(F)(F)C5)C4)nc4c(OCC(F)(F)F)c(-c5c(C)ccc6[nH]ncc56)c(C5CC5)cc34)CC2)C1` [Compound 176]: 300 to 1000 nM and 50 to 90%.
Regarding `C=CC(=O)N1CC2(CCN(c3nc(N4CC(N5CCCCC5)C4)nc4c(OCC(F)(F)F)c(-c5c(C)ccc6[nH]ncc56)c(C5CC5)cc34)CC2)C1` [Compound 177], in the test on H358 cells, the IC50 is below 300 nM. Moreover, in the test with pERK level in H358 cells, the inhibition at 1 µM was above 90%.
Compound `C=CC(=O)N1CC2(CCN(c3nc(N4CC(N5CCC(F)CC5)C4)nc4c(OCC(F)(F)F)c(-c5c(C)ccc6[nH]ncc56)c(C5CC5)cc34)CC2)C1` [Compound 178] came in with an IC50 with H358 cells below 300 nM. Moreover, in the test with pERK level in H358 cells, the inhibition at 1 µM is above 90%.
In the test with H358 cells, `C=CC(=O)N1CC2(CCN(c3nc(N4CC(N5CCC(OC)CC5)C4)nc4c(OCC(F)(F)F)c(-c5c(C)ccc6[nH]ncc56)c(C5CC5)cc34)CC2)C1` [Compound 179] gave an IC50 below 300 nM. For the same compound, the inhibition at 1 µM with pERK level in H358 cells was above 90%.
